Like-named read-outs stand apart in the source and are kept apart here.
How the values were obtained:
[1] = system: Alternaria alternata; test: Alternaria alternata in vitro cell test; format: cell-based; conditions: 120 h, 5 days incubation, read-out: efficacy (inhibition of fungal growth; no direct activity); for inhibition at 5 ppm: 5 ppm of active ingredient; for inhibition at 20 ppm: 20 ppm of active ingredient
Description: (§1) • Solvent: DMSO • Culture medium: 14.6 g anhydrous D-glucose (VWR), 7.1 g Mycological Peptone (Oxoid), 1.4 g granulated Yeast Extract (Merck), QSP 1 liter • Inoculum: spores suspension Fungicides were solubilized in DMSO and the solution used to prepare the required range of concentrations. The final concentration of DMSO used in the assay was ≤[…]1%. A spore suspension of A. alternata was prepared and diluted to the desired spore density. Fungicides were evaluated for their ability to inhibit spore germination and mycelium growth in liquid culture assay. The compounds were added in the desired concentration to the culture medium with spores. After 5 days incubation, fungi-toxicity of compounds was determined by spectrometric measurement of mycelium growth. Inhibition of fungal growth was determined by comparing the absorbance values in wells containing the fungicides with the absorbance in control wells without fungicides.

[2] = system: Xanthomonas campestris pv. campestris; test: Xanthomonas campestris pv. campestris in vitro cell test; format: cell-based; conditions: 24 h of incubation, read-out: efficacy (inhibition of bacteria growth; no direct activity); for inhibition at 5 ppm: 5 ppm of active ingredient; for inhibition at 20 ppm: 20 ppm of active ingredient
Description: (§2) • Solvent: DMSO • Culture medium: LB broth medium (Luria Broth Miller) Sigma • Inoculum: bacteria suspension Compounds were solubilized in DMSO and the solution used to prepare the required range of concentrations. The final concentration of DMSO used in the assay was ≤1%. Inoculum was prepared from a pre-culture of bacteria grown in liquid medium and diluted to the desired optical density (OD). Compounds were evaluated for their ability to inhibit bacteria growth in liquid culture assay. The compounds were added in the desired concentrations to culture medium containing the bacteria suspension. After 24 h of incubation, the efficacy of compounds was determined by spectrometric measurement of bacteria growth. Inhibition was determined by comparing the absorbance values in wells containing the compounds with the absorbance in control wells without active ingredients.

[3] = system: Pseudomonas syringae pv. tomato; test: Pseudomonas syringae pv. tomato in vitro cell test; format: cell-based; conditions: 20 ppm of active ingredient, 24 h of incubation, read-out: efficacy (inhibition of bacteria growth; no direct activity)
Description: as §2

[4] = LogP by HPLC on reversed phase columns (EEC directive 79/831 Annex V.A8); format: physicochemical; conditions: reversed phase HPLC columns
Method in brief: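 LogP derived from retention time, interpolated linearly between bracketing alkan-2-one standards (3 to 16 carbons). Where several values exist for one method, all are listed with "+"; UV spectra 200–400 nm at peak maxima gave lambda-max.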

[5] = system: Peronospora parasitica; test: In vivo preventive test on Peronospora parasitica (Crucifer downy mildew) on cabbage; conditions: Hyaloperonospora parasitica, 120 h, sprayed 72 hours before inoculation, evaluated 5 days after inoculation, read-out: efficacy; for pest or weed control at 125 ppm: 125 ppm of active ingredient; for pest or weed control at 500 ppm: 500 ppm of active ingredient; for pest or weed control at 31 ppm: 31 ppm of active ingredient
Method in brief: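 Preventive protocol: spore inoculation followed compound spraying by 72 h, with 5 days' incubation at 20 °C and 100% relative humidity. Disease was rated 5 days after inoculation against solvent-only plants (0% = control level, 100% = disease-free).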

[6] = system: Colletotrichum lindemuthianum; test: In vivo preventive test on Colletotrichum lindemuthianum (Anthracnose on bean); conditions: Colletotrichum lindemuthianum, 144 h, sprayed 72 hours before inoculation, evaluated 6 days after inoculation, read-out: efficacy; for pest or weed control at 500 ppm: 500 ppm of active ingredient; for pest or weed control at 31 ppm: 31 ppm of active ingredient; for pest or weed control at 125 ppm: 125 ppm of active ingredient
Method in brief: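 Young bean plants were sprayed with compound in acetone/DMSO/Tween diluted in water, then inoculated 72 h later with C. lindemuthianum spores. Incubation was 24 h at 20 °C/100% RH, then 5 days at 20 °C/90% RH. Efficacy scored 6 days post-inoculation: 0% equals solvent-treated control, 100% means no disease.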

[7] = system: Colletotrichum lindemuthianum; test: Colletotrichum lindemuthianum in vitro cell test; format: cell-based; conditions: 144 h, 6 days incubation, read-out: efficacy (inhibition of fungal growth; no direct activity); for inhibition at 5 ppm: 5 ppm of active ingredient; for inhibition at 20 ppm: 20 ppm of active ingredient
Description: as §1, with “of C. lindemuthianum” for “of A. alternata”, “inhibit spores” for “inhibit spore”, “After 6” for “After 5”

[8] = system: salicylate responsive promoter sequence of the PR1 (pathogenesis-related protein I) gene (AT2G14610); test: Induction of defense gene expression in Arabidopsis thaliana (PR1 promoter-GFP reporter plants); format: in vivo; conditions: 72 h, 3rd day after spraying, mock treated leaves set as 1.00, read-out: relative fluorescence value
Method in brief: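 Transgenic A. thaliana carrying GFP under the salicylate-responsive PR1 promoter, grown five days, then sprayed with compounds. Whole-plant fluorescence imaged and quantified on day 3 post-spray, expressed relative to mock-treated leaf background set at 1.00.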

[9] = system: Uromyces appendiculatus; test: In vivo preventive test on Uromyces appendiculatus (bean rust); conditions: 240 h, sprayed 72 hours before inoculation, evaluated 10 days after inoculation, read-out: efficacy; for pest or weed control at 500 ppm: 500 ppm of active ingredient; for pest or weed control at 125 ppm: 125 ppm of active ingredient
Method in brief: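 Young bean plants sprayed with compound in acetone/DMSO/Tween diluted in water, then inoculated 72 h later with spore suspension. Incubated 24 h at 20° C., 100% RH, then 9 days at 20° C., 70-80% RH. Efficacy scored 10 days post-inoculation, 0% = untreated-control level, 100% = no disease.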

SMILES	chromatographic logP ([4]; preparation examples, method not indicated, read-out: Log P)	chromatographic logP ([4]; method [a])	inhibition at 5 ppm [1] [%]	inhibition at 20 ppm [1] [%]	inhibition at 5 ppm [2] [%]	inhibition at 20 ppm [2] [%]	inhibition at 20 ppm [3] [%]	pest or weed control at 125 ppm [5] [%]	pest or weed control at 500 ppm [5] [%]	pest or weed control at 500 ppm [6] [%]	inhibition at 5 ppm [7] [%]	inhibition at 20 ppm [7] [%]	fold induction at 75 ppm [8]	fold induction at 300 ppm [8]	pest or weed control at 500 ppm [9] [%]	pest or weed control at 31 ppm [5] [%]	pest or weed control at 31 ppm [6] [%]	pest or weed control at 125 ppm [6] [%]	pest or weed control at 125 ppm [9] [%]	pest or weed control at 31 ppm ([9]; 31 ppm of active ingredient) [%]
Cc1c(C(=S)N[C@H](C(=O)O)C(C)C)sc(Br)c1Br [I.031, N-[(4,5-dibromo-3-methyl-2-thienyl)carbonothioyl]valine]	3.72		≤ 30	≤ 30	≤ 30	≤ 30	≤ 30	90 to 100	90 to 100	90 to 100	≤ 30	≤ 30	> 2	> 2	70 to 79					
C=CC1CC1(NC(=O)c1sc(Br)c(Br)c1C)C(=O)OC (stereo not shown) [I.003]		3.48	≤ 30	≤ 30	≤ 30	≤ 30	≤ 30	80 to 89	90 to 100	80 to 89	≤ 30		> 2		90 to 100				90 to 100	

Further lines, with some results ahead:

chromatographic logP ([4]; preparation examples, method not indicated, read-out: Log P)	chromatographic logP ([4]; method [a])	SMILES	inhibition at 5 ppm [1] [%]	inhibition at 20 ppm [1] [%]	inhibition at 5 ppm [2] [%]	inhibition at 20 ppm [2] [%]	inhibition at 20 ppm [3] [%]	pest or weed control at 125 ppm [5] [%]	pest or weed control at 500 ppm [5] [%]	pest or weed control at 500 ppm [6] [%]	inhibition at 5 ppm [7] [%]	inhibition at 20 ppm [7] [%]	fold induction at 75 ppm [8]	fold induction at 300 ppm [8]	pest or weed control at 500 ppm [9] [%]	pest or weed control at 31 ppm [5] [%]	pest or weed control at 31 ppm [6] [%]	pest or weed control at 125 ppm [6] [%]	pest or weed control at 125 ppm [9] [%]	pest or weed control at 31 ppm ([9]; 31 ppm of active ingredient) [%]
	3.25	COC(=O)C(CC(F)F)NC(=O)c1sc(Cl)c(Cl)c1C (stereo not shown) [I.043]	≤ 30	≤ 30	≤ 30	≤ 30	≤ 30	90 to 100	90 to 100	90 to 100	≤ 30			> 2	90 to 100	90 to 100	90 to 100	90 to 100	80 to 89	
	2.9	CCOC(=O)C1(NC(=O)c2sc(Br)c(Br)c2C)COC1 [I.014]	≤ 30	≤ 30	≤ 30	≤ 30	≤ 30	90 to 100	90 to 100	90 to 100	≤ 30	≤ 30	> 2	> 2	90 to 100	90 to 100	70 to 79	80 to 89	90 to 100	90 to 100
	2.28	CCOC(=O)C(CC(N)=O)NC(=O)c1sc(Cl)c(Cl)c1C (stereo not shown) [I.045]	≤ 30	≤ 30	≤ 30	≤ 30	≤ 30	90 to 100	90 to 100	80 to 89	≤ 30	≤ 30		> 2	90 to 100	90 to 100				

Reference: patent publication US12509437B2, “Substituted thiophene carboxamides and derivatives thereof as microbicides” (Bayer Aktiengesellschaft, priority 2019, dated 2025)
